The target of experiment [1] is T1, baculovirus-expressed ALK (Homo sapiens, UniProt Q9UM73).
T1 construct: host or cells: baculovirus expression system
Description: ALK Kinase Assay (ELISA-type, time-resolved fluorescence). To be noted: ALK kinase inhibition, 1 μM ATP; read-out: ALK Activity. In kind it is biochemical. In outline:
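Substrate coating: phospholipase C-γ, 10 μg/mL in TBS. Kinase step: 30 ng/ml ALK, 15 min, 37° C. Detection and analysis: Eu-N1 PT66 antibody, with IC50 fitted as a sigmoidal variable-slope dose-response curve.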
(ELISA stands for enzyme-linked immunosorbent assay.)

Experiment [2] has as its target T2, c-Met (cytoplasmic domain) (Homo sapiens, UniProt P08581).
T2 construct: 10 ng/mL c-Met (cytoplasmic domain, Invitrogen Corporation #PV3143); purchased Invitrogen Corporation PV3143
Description: c-Met Kinase Assay (same methods as for ALK, with modifications). The following applies: c-Met kinase inhibition, 1 μM ATP; read-out: cMet Activity. It counts as biochemical. A digest of the protocol:
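This plate-based kinase format uses immobilized phospholipase C-γ as substrate, phosphorylated by c-Met cytoplasmic domain (10 ng/mL) at 37° C for 15 minutes.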

T2 sequence (P08581 956-1390 limits assumed): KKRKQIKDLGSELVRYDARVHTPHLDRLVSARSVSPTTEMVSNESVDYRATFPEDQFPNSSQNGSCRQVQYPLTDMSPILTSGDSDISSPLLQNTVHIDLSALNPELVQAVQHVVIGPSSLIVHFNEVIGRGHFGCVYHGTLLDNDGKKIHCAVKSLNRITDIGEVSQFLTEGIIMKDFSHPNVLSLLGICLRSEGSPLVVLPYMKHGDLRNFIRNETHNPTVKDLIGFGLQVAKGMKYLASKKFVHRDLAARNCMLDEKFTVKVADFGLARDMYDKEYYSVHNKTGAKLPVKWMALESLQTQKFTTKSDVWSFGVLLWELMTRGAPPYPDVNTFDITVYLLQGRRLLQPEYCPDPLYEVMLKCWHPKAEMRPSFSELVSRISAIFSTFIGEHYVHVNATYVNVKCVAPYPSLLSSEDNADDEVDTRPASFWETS
T1 sequence (Q9UM73 19-1620): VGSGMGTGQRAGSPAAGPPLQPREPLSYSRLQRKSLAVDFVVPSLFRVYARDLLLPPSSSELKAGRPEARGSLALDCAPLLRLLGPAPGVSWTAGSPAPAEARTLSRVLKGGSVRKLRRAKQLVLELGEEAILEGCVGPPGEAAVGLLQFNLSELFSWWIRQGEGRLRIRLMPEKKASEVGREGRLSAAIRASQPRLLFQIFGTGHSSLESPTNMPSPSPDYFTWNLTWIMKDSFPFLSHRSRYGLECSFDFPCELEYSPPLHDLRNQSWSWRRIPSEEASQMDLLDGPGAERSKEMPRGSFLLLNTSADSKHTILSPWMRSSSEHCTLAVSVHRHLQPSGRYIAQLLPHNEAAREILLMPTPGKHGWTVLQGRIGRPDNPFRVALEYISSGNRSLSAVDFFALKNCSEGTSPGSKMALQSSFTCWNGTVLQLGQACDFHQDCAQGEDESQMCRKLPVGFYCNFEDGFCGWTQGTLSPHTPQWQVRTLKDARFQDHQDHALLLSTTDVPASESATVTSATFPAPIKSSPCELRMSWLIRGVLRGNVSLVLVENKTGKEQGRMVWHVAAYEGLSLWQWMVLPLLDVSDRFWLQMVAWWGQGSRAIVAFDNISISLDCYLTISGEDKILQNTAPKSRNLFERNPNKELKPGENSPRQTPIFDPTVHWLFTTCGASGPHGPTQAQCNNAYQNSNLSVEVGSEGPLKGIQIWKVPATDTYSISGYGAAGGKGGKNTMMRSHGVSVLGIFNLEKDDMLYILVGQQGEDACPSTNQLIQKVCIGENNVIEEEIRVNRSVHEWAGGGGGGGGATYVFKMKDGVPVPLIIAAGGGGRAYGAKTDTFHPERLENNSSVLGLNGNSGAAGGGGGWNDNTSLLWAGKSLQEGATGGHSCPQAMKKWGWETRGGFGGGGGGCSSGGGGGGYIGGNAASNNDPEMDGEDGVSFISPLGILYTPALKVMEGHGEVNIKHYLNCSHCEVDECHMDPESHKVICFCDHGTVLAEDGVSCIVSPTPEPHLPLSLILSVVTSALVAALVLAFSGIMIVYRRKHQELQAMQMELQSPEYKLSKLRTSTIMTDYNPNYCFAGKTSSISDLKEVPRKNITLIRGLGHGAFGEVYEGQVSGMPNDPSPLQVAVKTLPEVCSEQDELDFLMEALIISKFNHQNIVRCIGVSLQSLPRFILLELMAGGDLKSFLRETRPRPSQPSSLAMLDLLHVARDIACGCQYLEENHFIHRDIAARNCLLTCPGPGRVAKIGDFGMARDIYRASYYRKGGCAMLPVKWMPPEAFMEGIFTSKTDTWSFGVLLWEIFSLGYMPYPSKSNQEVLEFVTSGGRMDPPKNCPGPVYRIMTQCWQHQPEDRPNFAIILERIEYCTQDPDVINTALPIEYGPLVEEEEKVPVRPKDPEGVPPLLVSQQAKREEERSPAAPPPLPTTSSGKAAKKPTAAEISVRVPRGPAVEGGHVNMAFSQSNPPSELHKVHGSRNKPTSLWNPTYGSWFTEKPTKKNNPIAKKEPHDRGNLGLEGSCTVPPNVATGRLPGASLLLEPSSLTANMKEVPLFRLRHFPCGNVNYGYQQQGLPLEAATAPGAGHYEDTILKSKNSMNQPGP

For `C#CCOc1cccc(F)c1Nc1nc(Nc2ccc3c(c2)CCOC(=O)N3C)ncc1Cl` [Example 1779, 2-[5-Chloro-4-(2-fluoro-6-prop-2-ynyloxy-phenylamino)-pyrimidin-2-ylamino]-5-methyl-8,9-dihydro-5H-7-oxa-5-aza-benzocyclohepten-6-one], the IC50 in experiment [1] and in experiment [2] was 0.1 to 1 µM throughout.

As to `C=CCOc1cccc(F)c1Nc1nc(Nc2ccc3c(c2)CCOC(=O)N3C)ncc1Cl` [Example 1780, 2-[4-(2-Allyloxy-6-fluoro-phenylamino)-5-chloro-pyrimidin-2-ylamino]-5-methyl-8,9-dihydro-5H-7-oxa-5-aza-benzocyclohepten-6-one], the IC50 in experiment [1] and in experiment [2] was less than 0.1 µM in each case.

For the molecule `CN1C(=O)OCCc2cc(Nc3ncc(Cl)c(Nc4c(F)cccc4OCCN)n3)ccc21` [Example 1781, 2-{4-[2-(2-Amino-ethoxy)-6-fluoro-phenylamino]-5-chloro-pyrimidin-2-ylamino}-5-methyl-8,9-dihydro-5H-7-oxa-5-aza-benzocyclohepten-6-one], the IC50 in experiment [1] and in experiment [2] was 1 to 10 µM in each case.

For the molecule `CC(=O)NCCOc1cccc(F)c1Nc1nc(Nc2ccc3c(c2)CCOC(=O)N3C)ncc1Cl` [Example 1782, N-(2-{2-[5-Chloro-2-(5-methyl-6-oxo-5,6,8,9-tetrahydro-7-oxa-5-aza-benzocyclohepten-2-ylamino)-pyrimidin-4-ylamino]-3-fluoro-phenoxy}-ethyl)-acetamide], the IC50 in experiment [1] and in experiment [2] was 1 to 10 µM in each case.

Turning to `CCNc1nnc(-c2ccccc2Nc2nc(Nc3ccc4c(c3)CCOC(=O)N4C)ncc2Cl)o1` [Example 1783, 2-{5-Chloro-4-[2-(5-ethylamino-[1,3,4]oxadiazol-2-yl)-phenylamino]-pyrimidin-2-ylamino}-5-methyl-8,9-dihydro-5H-7-oxa-5-aza-benzocyclohepten-6-one], the IC50 is 1 to 10 µM in experiment [1] and 0.1 to 1 µM in experiment [2].

As to `Cc1noc(-c2ccccc2Nc2nc(Nc3ccc4c(c3)CCOC(=O)N4C)ncc2Cl)n1` [Example 1784, 2-{5-Chloro-4-[2-(3-methyl-[1,2,4]oxadiazol-5-yl)-phenylamino]-pyrimidin-2-ylamino}-5-methyl-8,9-dihydro-5H-7-oxa-5-aza-benzocyclohepten-6-one], the IC50 in experiment [1] and in experiment [2] was 1 to 10 µM each time.

For the molecule `Cc1noc(-c2cccc(F)c2Nc2nc(Nc3ccc4c(c3)CCOC(=O)N4C)ncc2Cl)n1` [Example 1785, 2-{5-Chloro-4-[2-fluoro-6-(3-methyl-[1,2,4]oxadiazol-5-yl)-phenylamino]-pyrimidin-2-ylamino}-5-methyl-8,9-dihydro-5H-7-oxa-5-aza-benzocyclohepten-6-one], the IC50 in experiment [1] lay within 1 to 10 µM; in experiment [2], 0.1 to 1 µM.

On to `Cc1nnc(-c2ccccc2Nc2nc(Nc3ccc4c(c3)CCOC(=O)N4C)ncc2Cl)o1` [Example 1786, 2-{5-Chloro-4-[2-(5-methyl-[1,3,4]oxadiazol-2-yl)-phenylamino]-pyrimidin-2-ylamino}-5-methyl-8,9-dihydro-5H-7-oxa-5-aza-benzocyclohepten-6-one], for which the IC50 in experiment [1] was 0.1 to 1 µM; in experiment [2], less than 0.1 µM.

`Cc1nnc(-c2cccc(F)c2Nc2nc(Nc3ccc4c(c3)CCOC(=O)N4C)ncc2Cl)o1` [Example 1787, 2-{5-Chloro-4-[2-fluoro-6-(5-methyl-[1,3,4]oxadiazol-2-yl)-phenylamino]-pyrimidin-2-ylamino}-5-methyl-8,9-dihydro-5H-7-oxa-5-aza-benzocyclohepten-6-one]: the values for the IC50 in experiment [1] and in experiment [2] were 1 to 10 µM and 0.1 to 1 µM, respectively.

On to `Cc1n[nH]c(-c2ccccc2Nc2nc(Nc3ccc4c(c3)CCOC(=O)N4C)ncc2Cl)n1` [Example 1788, 2-{5-Chloro-4-[2-(5-methyl-2H-[1,2,4]triazol-3-yl)-phenylamino]-pyrimidin-2-ylamino}-5-methyl-8,9-dihydro-5H-7-oxa-5-aza-benzocyclohepten-6-one], for which the IC50 in experiment [1] and in experiment [2] was less than 0.1 µM throughout.

Take `Cc1cnc(-c2cccc(F)c2Nc2nc(Nc3ccc4c(c3)CCOC(=O)N4C)ncc2Cl)o1` [Example 1789, 2-{5-Chloro-4-[2-fluoro-6-(5-methyl-oxazol-2-yl)-phenylamino]-pyrimidin-2-ylamino}-5-methyl-8,9-dihydro-5H-7-oxa-5-aza-benzocyclohepten-6-one]: the IC50 in experiment [1] and in experiment [2] was 0.1 to 1 µM throughout.

For the molecule `Cc1cnc(-c2sccc2Nc2nc(Nc3ccc4c(c3)CCOC(=O)N4C)ncc2Cl)o1` [Example 1790, 2-{5-Chloro-4-[2-(5-methyl-oxazol-2-yl)-thiophen-3-ylamino]-pyrimidin-2-ylamino}-5-methyl-8,9-dihydro-5H-7-oxa-5-aza-benzocyclohepten-6-one], the IC50 in experiment [1] and in experiment [2] was 0.1 to 1 µM each time.

With `CNCc1ccccc1Nc1nc(Nc2ccc3c(c2)CCOC(=O)N3C)ncc1Cl` [Example 1791, 2-[5-Chloro-4-(2-methylaminomethyl-phenylamino)-pyrimidin-2-ylamino]-5-methyl-8,9-dihydro-5H-7-oxa-5-aza-benzocyclohepten-6-one], the IC50 in experiment [1] and in experiment [2] was 1 to 10 µM each time.

For the molecule `CC(=O)N(C)Cc1ccccc1Nc1nc(Nc2ccc3c(c2)CCOC(=O)N3C)ncc1Cl` [Example 1792, N-{2-[5-Chloro-2-(5-methyl-6-oxo-5,6,8,9-tetrahydro-7-oxa-5-aza-benzocyclohepten-2-ylamino)-pyrimidin-4-ylamino]-benzyl}-N-methyl-acetamide], the IC50 in experiment [1] and in experiment [2] was 1 to 10 µM in each case.

`CC(=O)NCc1ccccc1Nc1nc(Nc2ccc3c(c2)CCOC(=O)N3C)ncc1Cl` [Example 1793, N-{2-[5-Chloro-2-(5-methyl-6-oxo-5,6,8,9-tetrahydro-7-oxa-5-aza-benzocyclohepten-2-ylamino)-pyrimidin-4-ylamino]-benzyl}-acetamide]: the IC50 is 0.1 to 1 µM in experiment [1] and 1 to 10 µM in experiment [2].

Take `CNC(=O)c1ccccc1Nc1nc(Nc2ccc3c(c2)CNC(=O)CC3)ncc1Cl` [Example 1794, 2-[5-Chloro-2-(3-oxo-2,3,4,5-tetrahydro-1H-benzo[c]azepin-8-ylamino)-pyrimidin-4-ylamino]-N-methylbenzamide]: the IC50 in experiment [1] and in experiment [2] was less than 0.1 µM in each case.

As to `CNC(=O)c1scc(C)c1Nc1nc(Nc2ccc3c(c2)CNC(=O)CC3)ncc1Cl` [Example 1795, 3-[5-Chloro-2-(3-oxo-2,3,4,5-tetrahydro-1H-benzo[c]azepin-8-ylamino)-pyrimidin-4-ylamino]-4-methyl-thiophene-2-carboxylic acid methylamide], the results for the IC50 in experiment [1] and in experiment [2] were 1 to 10 µM and less than 0.1 µM, respectively.

As for `CNC(=O)c1cccc(Cl)c1Nc1nc(Nc2ccc3c(c2)CNC(=O)CC3)ncc1Cl` [Example 1796, 3-Chloro-2-[5-chloro-2-(3-oxo-2,3,4,5-tetrahydro-1H-benzo[c]azepin-8-ylamino)-pyrimidin-4-ylamino]-N-methylbenzamide], the IC50 in experiment [1] is 0.1 to 1 µM; in experiment [2], less than 0.1 µM.

With `NC(=O)C1C2C=CC(C2)C1Nc1nc(Nc2ccc3c(c2)CNC(=O)CC3)ncc1Cl` (stereo not drawn) [Example 1797, 3-exo-[5-Chloro-2-(3-oxo-2,3,4,5-tetrahydro-1H-benzo[c]azepin-8-ylamino)-pyrimidin-4-yl]aminobicyclo[2.2.1]hept-5-ene-2-exo-carboxamide], the IC50 in experiment [1] was less than 0.1 µM; in experiment [2], 0.1 to 1 µM.

As for `CNC(=O)c1scc(C)c1Nc1nc(Nc2ccc3c(c2)CN(C)C(=O)CC3)ncc1Cl` [Example 1799, 3-[5-Chloro-2-(2-methyl-3-oxo-2,3,4,5-tetrahydro-1H-benzo[c]azepin-8-ylamino)-pyrimidin-4-ylamino]-4-methyl-thiophene-2-carboxylic acid methylamide], the IC50 in experiment [1] and in experiment [2] was less than 0.1 µM throughout.

For the molecule `CNC(=O)c1ccccc1N(C)c1nc(Nc2ccc3c(c2)CN(C)C(=O)CC3)ncc1F` [Example 1800, 2-{[5-Fluoro-2-(2-methyl-3-oxo-2,3,4,5-tetrahydro-1H-benzo[c]azepin-8-ylamino)-pyrimidin-4-yl]-methyl-amino}-N-methyl-benzamide], the IC50 in experiment [1] was 1 to 10 µM; in experiment [2], less than 0.1 µM.

As for `CNC(=O)c1cc(C)cc(C)c1Nc1nc(Nc2ccc3c(c2)CN(C)C(=O)CC3)ncc1Cl` [Example 1801, 2-[5-Chloro-2-(2-methyl-3-oxo-2,3,4,5-tetrahydro-1H-benzo[c]azepin-8-ylamino)-pyrimidin-4-ylamino]-3,5,N-trimethyl-benzamide], the results for the IC50 in experiment [1] and in experiment [2] were 1 to 10 µM and greater than 10 µM, respectively.

`CN1Cc2cc(Nc3ncc(Cl)c(Nc4ccccc4-c4nccn4C)n3)ccc2CCC1=O` [Example 1802, 8-{5-Chloro-4-[2-(1-methyl-1H-imidazol-2-yl)-phenylamino]-pyrimidin-2-ylamino}-2-methyl-1,2,4,5-tetrahydro-benzo[c]azepin-3-one]: the IC50 in experiment [1] lay within 1 to 10 µM; in experiment [2], 0.1 to 1 µM.

`CN1Cc2cc(Nc3ncc(Cl)c(Nc4cccc5c4OC(F)(F)O5)n3)ccc2CCC1=O` [Example 1803, 8-[5-Chloro-4-(2,2-difluoro-benzo[1,3]dioxol-4-ylamino)-pyrimidin-2-ylamino]-2-methyl-1,2,4,5-tetrahydro-benzo[c]azepin-3-one]: the results for the IC50 in experiment [1] and in experiment [2] were less than 0.1 µM and 0.1 to 1 µM, respectively.

The record behind these values is patent US8148391B2 (Cephalon, Inc., priority 2006, dated 2012).
